Experiments:
Format in all cases: cell-based
[1] = system: NCI-H322M (non-small cell lung cancer); assay: NCI-60 SRB cytotoxicity screen; settings: Homo sapiens, single dose 10 μM, read-out: growth inhibition (GI%)
[2] = system: NCI-H460 (non-small cell lung cancer); assay: NCI-60 SRB cytotoxicity screen; settings: Homo sapiens; NCI-H460, single dose 10 μM; read-out: growth inhibition (GI%)
HS 578T (breast cancer) = assay: NCI-60 SRB cytotoxicity screen; settings: Homo sapiens, single dose 10 μM, read-out: growth inhibition (GI%)
HCT-15 (colon cancer) = assay: NCI-60 SRB cytotoxicity screen; settings: Homo sapiens; HCT-15, single dose 10 μM; read-out: growth inhibition (GI%)
K-562 (leukemia) = assay: NCI-60 SRB cytotoxicity screen; settings: Homo sapiens; K-652 [sic], single dose 10 μM; read-out: growth inhibition (GI%)
[3] = system: A549/ATCC (non-small cell lung cancer); assay: NCI-60 SRB cytotoxicity screen; settings: Homo sapiens, single dose 10 μM, read-out: growth inhibition (GI%)
[4] = system: HOP-62 (non-small cell lung cancer); assay: NCI-60 SRB cytotoxicity screen; settings: Homo sapiens; HOP-62, single dose 10 μM; read-out: growth inhibition (GI%)
HL-60(TB) (leukemia) = assay: NCI-60 SRB cytotoxicity screen; settings: Homo sapiens, single dose 10 μM, read-out: growth inhibition (GI%)
UO-31 (renal cancer) = assay: NCI-60 SRB cytotoxicity screen; settings: Homo sapiens; UO-31, single dose 10 μM; read-out: growth inhibition (GI%)
RXF 393 (renal cancer) = assay: NCI-60 SRB cytotoxicity screen; settings: Homo sapiens; RXF 393, single dose 10 μM; read-out: growth inhibition (GI%)
[5] = system: NCI-H522 (non-small cell lung cancer); assay: NCI-60 SRB cytotoxicity screen; settings: Homo sapiens; NCI-H522, single dose 10 μM; read-out: growth inhibition (GI%)
SF-539 (CNS cancer) = assay: NCI-60 SRB cytotoxicity screen; settings: Homo sapiens; SF-539, single dose 10 μM; read-out: growth inhibition (GI%)
MDA-MB-435 (melanoma) = assay: NCI-60 SRB cytotoxicity screen; settings: Homo sapiens, MDA-MB-435, read-out: growth inhibition (GI%);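 note: growth inhibition in percent at a single 10 µM dose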
U251 (CNS cancer) = assay: NCI-60 SRB cytotoxicity screen; settings: Homo sapiens, U-251; U251, single dose 10 μM; read-out: growth inhibition (GI%)
[6] = system: NCI-H23 (non-small cell lung cancer); assay: NCI-60 SRB cytotoxicity screen; settings: Homo sapiens; NCI-H23, single dose 10 μM; read-out: growth inhibition (GI%)
SNB-19 (CNS cancer) = assay: NCI-60 SRB cytotoxicity screen; settings: Homo sapiens; SNB-19, single dose 10 μM; read-out: growth inhibition (GI%)
CCRF-CEM (leukemia) = assay: NCI-60 SRB cytotoxicity screen; settings: Homo sapiens, single dose 10 μM, read-out: growth inhibition (GI%)
OVCAR-4 (ovarian cancer) = assay: NCI-60 SRB cytotoxicity screen; settings: Homo sapiens; OVCAR-4, single dose 10 μM; read-out: growth inhibition (GI%)
SK-MEL-2 (melanoma) = assay: NCI-60 SRB cytotoxicity screen; settings: Homo sapiens; SK-MEL-2, single dose 10 μM; read-out: growth inhibition (GI%)
UACC-62 (melanoma) = assay: NCI-60 SRB cytotoxicity screen; settings: Homo sapiens; UACC-62, single dose 10 μM; read-out: growth inhibition (GI%)
[7] = system: 60 cancer cell lines (NCI); assay: NCI-60 single-dose screen, overall verdict over the panel; settings: single dose 10 μM, whole panel
Description: (§1) The cytotoxic activity of the synthesized quinoline derivatives was determined by the national cancer institute (NCI, Bethesda, Maryland, USA) against 60 different cancer cell lines at a single high dose (10^−5 M) in the full NCI 60 cell panel using the sulforhodamine B assay for cell viability evaluation. In summary, 5 × 10^3 cells were in 96-well plate and incubated in complete media for 24 h. Cells were treated with 100 μL of media containing each newly synthesized compound. After drug exposure, cells were fixed by replacing media with 150 μL of 10% TCA and incubated at 4 °C for 1 h. The TCA solution was removed, and the cells were washed 5 times with distilled water. Aliquots of 70 μL SRB solution (0.4% w/v) were added and incubated in a dark place at room temperature for 10 min. The plates were washed 3 times with 1% acetic acid and allowed to air-dry overnight. Then, 150 μL of TRIS (10 mM) was added to dissolve protein-bound SRB stain. The absorbance was measured at 540 nm.% Cytotoxicity = [1 − (AVx/AVNC)] × 100where AVx denotes the average absorbance of the sample well and AVNC denotes the average absorbance of the negative control.

SK-MEL-5 (melanoma) = assay: NCI-60 SRB cytotoxicity screen; settings: Homo sapiens; SK-MEL-5, single dose 10 μM; read-out: growth inhibition (GI%)
OVCAR-8 (ovarian cancer) = assay: NCI-60 SRB cytotoxicity screen; settings: Homo sapiens; OVCAR-8, single dose 10 μM; read-out: growth inhibition (GI%)
OVCAR-5 (ovarian cancer) = assay: NCI-60 SRB cytotoxicity screen; settings: Homo sapiens; OVCAR-5, single dose 10 μM; read-out: growth inhibition (GI%)
[8] = system: MDA-MB-468 (breast cancer); assay: NCI-60 SRB cytotoxicity screen; settings: Homo sapiens; MDA-MB-468, single dose 10 μM; read-out: growth inhibition (GI%)
Description: as §1
The methodology of the NCI anticancer screening has been described in details at (http://www.dtp.nci.nih.gov). The anticancer assay was performed in full NCI 60 cell lines derived from nine tumor subpanels, including leukemia, lung, colon, CNS, melanoma, ovarian, renal, prostate, and breast cancer cell lines.
The cell lines were first cultured for 48 h, after being exposed to a single dosage of the compound. Using the protein-binding dye sulforhodamine B dye, cell proliferation and viability were evaluated (SRB assay). The results were presented for each chemical as GI%. Compound that met NCI criteria for substantial activity were further evaluated using a five-dose experiment. The NCI60 cell lines were treated with the chemicals in this assay at five different concentration levels (0.01, 0.1, 1, 10, and 100 μM).

SF-268 (CNS cancer) = assay: NCI-60 SRB cytotoxicity screen; settings: Homo sapiens; SF-268, single dose 10 μM; read-out: growth inhibition (GI%)
ACHN (renal cancer) = assay: NCI-60 SRB cytotoxicity screen; settings: Homo sapiens, single dose 10 μM, read-out: growth inhibition (GI%)
T-47D (breast cancer) = assay: NCI-60 SRB cytotoxicity screen; settings: Homo sapiens, T47D, single dose 10 μM, read-out: growth inhibition (GI%)
MCF7 (breast cancer) = assay: NCI-60 SRB cytotoxicity screen; settings: Homo sapiens; MCF7, single dose 10 μM; read-out: growth inhibition (GI%)
SK-OV-3 (ovarian cancer) = assay: NCI-60 SRB cytotoxicity screen; settings: Homo sapiens; SK-OV-3, single dose 10 μM; read-out: growth inhibition (GI%)
BT-549 (breast cancer) = assay: NCI-60 SRB cytotoxicity screen; settings: Homo sapiens; BT-549, single dose 10 μM; read-out: growth inhibition (GI%)

| Compound | inhibition at 10 µM [1] | inhibition at 10 µM [2] | inhibition at 10 µM (HS 578T (breast cancer)) | inhibition at 10 µM (HCT-15 (colon cancer)) | inhibition at 10 µM (K-562 (leukemia)) | inhibition at 10 µM [3] | inhibition at 10 µM [4] | inhibition at 10 µM (HL-60(TB) (leukemia)) | inhibition at 10 µM (UO-31 (renal cancer)) | inhibition at 10 µM (RXF 393 (renal cancer)) | inhibition at 10 µM [5] | inhibition at 10 µM (SF-539 (CNS cancer)) | inhibition at 10 µM (MDA-MB-435 (melanoma)) | inhibition at 10 µM (U251 (CNS cancer)) | inhibition at 10 µM [6] | inhibition at 10 µM (SNB-19 (CNS cancer)) | inhibition at 10 µM (CCRF-CEM (leukemia)) | inhibition at 10 µM (OVCAR-4 (ovarian cancer)) | inhibition at 10 µM (SK-MEL-2 (melanoma)) | inhibition at 10 µM (UACC-62 (melanoma)) | other results |
| --- | --- | --- | --- | --- | --- | --- | --- | --- | --- | --- | --- | --- | --- | --- | --- | --- | --- | --- | --- | --- | --- |
| CCc1cccc2cc(C=CC(=O)c3ccc(F)cc3)c(Cl)nc12 [Compound 3d, 3-(2-Chloro-8-ethylquinolin-3-yl)-1-(4-fluorophenyl)prop-2-en-1-one] | < 10% | < 10% | < 10% | < 10% | < 10% | < 10% | < 10% | < 10% | < 10% | < 10% | < 10% | 11% | < 10% | < 10% | < 10% | < 10% | < 10% | < 10% | < 10% | < 10% | cytotoxic activity over the cell lines (in words) [7]: low cytotoxic activity; inhibition at 10 µM (SK-MEL-5 (melanoma)): < 10%; inhibition at 10 µM (OVCAR-8 (ovarian cancer)): < 10%; inhibition at 10 µM (OVCAR-5 (ovarian cancer)): < 10%; inhibition at 10 µM [8]: < 10%; inhibition at 10 µM (SF-268 (CNS cancer)): < 10%; inhibition at 10 µM (ACHN (renal cancer)): < 10%; inhibition at 10 µM (T-47D (breast cancer)): < 10%; inhibition at 10 µM (MCF7 (breast cancer)): < 10%; inhibition at 10 µM (SK-OV-3 (ovarian cancer)): < 10%; inhibition at 10 µM (BT-549 (breast cancer)): < 10% |
| CCc1cccc2cc(C3C=C(c4ccc(F)cc4)NC(=S)N3)c(Cl)nc12 (stereo not shown) [Compound 6d, 4-(2-Chloro-8-ethylquinolin-3-yl)-6-(4-fluorophenyl)-3,4-dihydropyrimidine-2(1H)-thione] | < 10% | < 10% | < 10% | 26.2% | 27.6% | < 10% | 15.2% | < 10% | 49.5% | < 10% | 25% | < 10% | < 10% | < 10% | 11.8% | < 10% | < 10% | 21% | < 10% | 14.2% | cytotoxic activity over the cell lines (in words) [7]: limited cytotoxic activity; inhibition at 10 µM (SK-MEL-5 (melanoma)): < 10%; inhibition at 10 µM (OVCAR-8 (ovarian cancer)): < 10%; inhibition at 10 µM (OVCAR-5 (ovarian cancer)): < 10%; inhibition at 10 µM (SF-268 (CNS cancer)): 14.9%; inhibition at 10 µM (ACHN (renal cancer)): < 10%; inhibition at 10 µM (T-47D (breast cancer)): 23.9%; inhibition at 10 µM (MCF7 (breast cancer)): 24.6%; inhibition at 10 µM (SK-OV-3 (ovarian cancer)): < 10%; inhibition at 10 µM (BT-549 (breast cancer)): < 10% |
| CCc1cccc2cc(-c3cc(-c4cc(OC)c(OC)c(OC)c4)[nH]c(=S)c3C#N)c(Cl)nc12 [Compound 5c, 4-(2-Chloro-8-ethylquinolin-3-yl)-2-thioxo-6-(3,4,5-trimethoxyphenyl)-1,2-dihydropyridine-3-carbonitrile] | 34% | 21.8% | 32.7% | 29% | 33.9% | 38.1% | 10.6% | 51.8% | 45.2% | 37.3% | 65.7% | 29.7% | 24.9% | 31% | 33.7% | 39.1% | 57.6% | 41.6% | 33% | 33.5% | inhibition at 10 µM (SK-MEL-5 (melanoma)): 52.2%; inhibition at 10 µM (OVCAR-8 (ovarian cancer)): 36.7%; inhibition at 10 µM (OVCAR-5 (ovarian cancer)): < 10%; inhibition at 10 µM [8]: 50.5%; inhibition at 10 µM (SF-268 (CNS cancer)): 31.7%; inhibition at 10 µM (ACHN (renal cancer)): 32.5%; inhibition at 10 µM (T-47D (breast cancer)): 60.6%; inhibition at 10 µM (MCF7 (breast cancer)): 46.5%; inhibition at 10 µM (SK-OV-3 (ovarian cancer)): < 10%; inhibition at 10 µM (BT-549 (breast cancer)): 21.1% |
